Measurements as given in the supplement of paper PMC10307832.

These cell lines were tested with Cn1nnc2c(C(N)=O)ncn2c1=O [Temozolomide] + CC(=O)c1c(C)c2cnc(Nc3ccc(N4CCNCC4)cn3)nc2n(C2CCCC2)c1=O [Palbociclib] (partner 0.5 µM) (assay: relative viability (nuclei count vs DMSO), 5 days (fraction); higher = more cells survive). Details: first compound 0.2 µM.
Method in brief: (§1)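 Medians of duplicate plates are given as relative viability. That measure is the nuclei count in treated wells divided by the count in vehicle wells. Counts were taken on 4× images of lung cancer cell lines in 1536-well plates, 5 days after pin-tool dosing the day after seeding with one drug alone or a fixed anchor-drug dose plus five library-drug doses (not always all listed) in √10 steps.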

Cell Line | relative viability
NCI-H1915 | 0.546
NCI-H1944 | 0.335
NCI-H1975 | 0.575
NCI-H1993 | 0.558
NCI-H2009 | 0.274
NCI-H2023 | 0.407
NCI-H2085 | 0.487
NCI-H2087 | 0.254
NCI-H2126 | 0.347
NCI-H2228 | 0.918
NCI-H2342 | 0.501
NCI-H2347 | 0.442
NCI-H2405 | 0.442
NCI-H3122 | 0.206
PC-3 [JPC-3] | 0.541
PC-14 | 0.706
RERF-LC-KJ | 1.02
SK-LU-1 | 0.382
SK-MES-1 | 0.328
SW 900 | 0.598
SW 1573 | 0.502
UMC-11 | 0.312

Same assay, conditions: first compound 0.6325 µM

Cell Line | relative viability
NCI-H1915 | 0.483
NCI-H1944 | 0.341
NCI-H1975 | 0.608
NCI-H1993 | 0.772
NCI-H2009 | 0.217
NCI-H2023 | 0.377
NCI-H2085 | 0.487
NCI-H2087 | 0.239
NCI-H2126 | 0.332
NCI-H2170 | 0.398
NCI-H2228 | 1.03
NCI-H2342 | 0.529
NCI-H2347 | 0.473
NCI-H2405 | 0.576
NCI-H3122 | 0.202
PC-3 [JPC-3] | 0.554
PC-14 | 0.515
RERF-LC-KJ | 1.1
SK-LU-1 | 0.397
SK-MES-1 | 0.312
SW 900 | 0.612
SW 1573 | 0.44
UMC-11 | 0.38

Same assay, conditions: first compound 2 µM

Cell Line | relative viability
NCI-H1915 | 0.521
NCI-H1944 | 0.345
NCI-H1975 | 0.564
NCI-H1993 | 0.618
NCI-H2009 | 0.238
NCI-H2023 | 0.377
NCI-H2085 | 0.457
NCI-H2087 | 0.224
NCI-H2126 | 0.349
NCI-H2170 | 0.368
NCI-H2228 | 0.809
NCI-H2342 | 0.521
NCI-H2347 | 0.388
NCI-H2405 | 0.518
NCI-H3122 | 0.175
PC-3 [JPC-3] | 0.543
PC-14 | 0.472
RERF-LC-KJ | 1.11
SK-LU-1 | 0.431
SK-MES-1 | 0.332
SW 900 | 0.556
SW 1573 | 0.467
UMC-11 | 0.3

Same assay, conditions: first compound 6.325 µM

Cell Line | relative viability
NCI-H1915 | 0.399
NCI-H1944 | 0.341
NCI-H1975 | 0.606
NCI-H1993 | 0.755
NCI-H2009 | 0.224
NCI-H2023 | 0.379
NCI-H2085 | 0.454
NCI-H2087 | 0.259
NCI-H2126 | 0.355
NCI-H2170 | 0.375
NCI-H2228 | 0.798
NCI-H2342 | 0.491
NCI-H2347 | 0.408
NCI-H2405 | 0.5
NCI-H3122 | 0.174
PC-3 [JPC-3] | 0.545
PC-14 | 0.527
RERF-LC-KJ | 1.17
SK-LU-1 | 0.33
SK-MES-1 | 0.353
SW 900 | 0.559
SW 1573 | 0.4
UMC-11 | 0.286

Same assay, conditions: first compound 20 µM

Cell Line | relative viability
NCI-H1915 | 0.228
NCI-H1944 | 0.298
NCI-H1975 | 0.485
NCI-H1993 | 0.589
NCI-H2009 | 0.225
NCI-H2023 | 0.346
NCI-H2085 | 0.449
NCI-H2087 | 0.225
NCI-H2126 | 0.345
NCI-H2170 | 0.264
NCI-H2228 | 0.614
NCI-H2342 | 0.53
NCI-H2347 | 0.474
NCI-H2405 | 0.508
NCI-H3122 | 0.153
PC-3 [JPC-3] | 0.433
PC-14 | 0.415
RERF-LC-KJ | 1.02
SK-LU-1 | 0.318
SK-MES-1 | 0.332
SW 900 | 0.468
SW 1573 | 0.429
UMC-11 | 0.321

These cell lines were tested with Cn1nnc2c(C(N)=O)ncn2c1=O [Temozolomide] + O=C(c1cc(Cc2n[nH]c(=O)c3ccccc23)ccc1F)N1CCN(C(=O)C2CC2)CC1 [Olaparib] (partner 8 µM) in the same assay as above. Details: first compound 0.2 µM.
Method in brief: as §1

Cell Line | relative viability
NCI-H1915 | 0.272
NCI-H1944 | 0.428
NCI-H1975 | 0.779
NCI-H1993 | 0.913
NCI-H2009 | 0.723
NCI-H2023 | 0.539
NCI-H2085 | 0.773
NCI-H2087 | 0.698
NCI-H2126 | 0.875
NCI-H2228 | 0.95
NCI-H2342 | 0.344
NCI-H2347 | 0.59
NCI-H2405 | 0.896
NCI-H3122 | 0.631
PC-3 [JPC-3] | 0.909
PC-14 | 0.279
RERF-LC-KJ | 0.975
SK-LU-1 | 0.428
SK-MES-1 | 0.824
SW 900 | 1.02
SW 1573 | 0.585
UMC-11 | 0.386

Same assay, conditions: first compound 0.6325 µM

Cell Line | relative viability
NCI-H1915 | 0.234
NCI-H1944 | 0.38
NCI-H1975 | 0.77
NCI-H1993 | 1.34
NCI-H2009 | 0.671
NCI-H2023 | 0.444
NCI-H2085 | 0.765
NCI-H2087 | 0.723
NCI-H2126 | 0.903
NCI-H2170 | 0.514
NCI-H2228 | 0.671
NCI-H2342 | 0.411
NCI-H2347 | 0.538
NCI-H2405 | 0.831
NCI-H3122 | 0.533
PC-3 [JPC-3] | 1.16
PC-14 | 0.371
RERF-LC-KJ | 1.05
SK-LU-1 | 0.446
SK-MES-1 | 0.632
SW 900 | 1.05
SW 1573 | 0.534
UMC-11 | 0.612

Same assay, conditions: first compound 2 µM

Cell Line | relative viability
NCI-H1915 | 0.238
NCI-H1944 | 0.377
NCI-H1975 | 0.798
NCI-H1993 | 1.2
NCI-H2009 | 0.717
NCI-H2023 | 0.463
NCI-H2085 | 0.797
NCI-H2087 | 0.698
NCI-H2126 | 0.852
NCI-H2170 | 0.466
NCI-H2228 | 0.363
NCI-H2342 | 0.454
NCI-H2347 | 0.614
NCI-H2405 | 0.998
NCI-H3122 | 0.654
PC-3 [JPC-3] | 1.12
PC-14 | 0.228
RERF-LC-KJ | 0.998
SK-LU-1 | 0.416
SK-MES-1 | 0.648
SW 900 | 0.871
SW 1573 | 0.424
UMC-11 | 0.382

Same assay, conditions: first compound 6.325 µM

Cell Line | relative viability
NCI-H1915 | 0.212
NCI-H1944 | 0.315
NCI-H1975 | 0.744
NCI-H1993 | 0.94
NCI-H2009 | 0.641
NCI-H2023 | 0.373
NCI-H2085 | 0.677
NCI-H2087 | 0.502
NCI-H2126 | 0.921
NCI-H2170 | 0.245
NCI-H2228 | 0.697
NCI-H2342 | 0.386
NCI-H2347 | 0.603
NCI-H2405 | 0.832
NCI-H3122 | 0.51
PC-3 [JPC-3] | 0.988
PC-14 | 0.171
RERF-LC-KJ | 0.846
SK-LU-1 | 0.292
SK-MES-1 | 0.532
SW 900 | 0.946
SW 1573 | 0.302
UMC-11 | 0.306

Same assay, conditions: first compound 20 µM

Cell Line | relative viability
NCI-H1915 | 0.151
NCI-H1944 | 0.27
NCI-H1975 | 0.699
NCI-H1993 | 0.836
NCI-H2009 | 0.499
NCI-H2023 | 0.26
NCI-H2085 | 0.491
NCI-H2087 | 0.378
NCI-H2126 | 0.831
NCI-H2170 | 0.137
NCI-H2228 | 0.479
NCI-H2342 | 0.36
NCI-H2347 | 0.472
NCI-H2405 | 0.492
NCI-H3122 | 0.334
PC-3 [JPC-3] | 0.435
PC-14 | 0.153
RERF-LC-KJ | 0.799
SK-LU-1 | 0.203
SK-MES-1 | 0.414
SW 900 | 0.776
SW 1573 | 0.236
UMC-11 | 0.265
